Common to all, as to type: cell-based, Pseudomonas aeruginosa
Assay [1] relates to PA14 ΔfpvA ΔfpvB pHERD20T-fpvB. Kind of assay: Checkerboard assay TS and siderophores, FpvB expressed. Particulars: 10:90 + 2% arabinose. The text has this: We investigated this hypothesis by treating the ΔfpvA ΔfpvB mutant complemented with fpvA or fpvB with TS and pyoverdine-Fe^3+. If pyoverdine competes with TS for the same binding site in the transporter, a reduction in TS susceptibility would be expected, as competition would decrease entry of the antibiotic into the cell. TS susceptibility decreased >8-fold with increasing concentrations of pyoverdine-Fe^3+ when FpvA was expressed (see Fig. S2A in the supplemental material).
Supplementary file : FIG S2 Checkerboard assays of the PA14 ΔfpvA ΔfpvB strain complemented with fpvA and fpvB in trans with TS and siderophores. […] Checkerboards of the PA14 ΔfpvA ΔfpvB pHERD20T-fpvB strain with TS and enterobactin (G), ferrioxamine E (H), and arthrobactin (I). Results are averaged from three independent biological replicates. Cells in the assay were grown in 10:90 + 2% arabinose. Download FIG S2, EPS file, 2.2 MB.
Checkerboards (8 rows by 8 columns) were conducted as previously described in a 96-well plate (Nunc) ([13], [14]). TS at 75× the final concentration dissolved in DMSO was added in columns from bottom to top in increasing concentrations. […] The next day, the OD600 was determined with a plate reader (Thermo Scientific) and normalized to percent of growth of the vehicle control (DMSO) after subtracting the OD600 from blank media.

Another assay deals with PA14 ΔfpvB ΔfoxA mutants. Kind of assay: Growth phenotypes of deletion mutants, ΔfpvB ΔfoxA. Particulars: 10 μg/mL ferrioxamine B, 10:90. The text has this: PA14, ΔfpvA, ΔfpvB, and ΔfpvA ΔfpvB strains treated with TS (A) and DSX (B) in 10:90. Green indicates growth, and white indicates no growth. Growth is expressed as percent of control. The PA14 ΔfpvA ΔfpvB strain complemented with pHERD20T, fpvA, or fpvB treated with TS (C) and DSX (D) in 10:90. […] All experiments are averaged from three independent biological replicates. Blue indicates growth and white indicates no growth. (H) Summary of growth phenotypes of WT PA14 and combinations of single, double, triple, and quadruple deletion mutants in fpvA, fpvB, fiuA, and foxA. […] Green indicates growth, whereas no growth is indicated in white. […] Representative plates are shown.
If there were no transporters for a particular siderophore, the mutant would fail to grow due to iron restriction.

Assay [2] deals with PA14 ΔfpvA ΔfpvB ΔfiuA ΔfoxA pHERD20T-fpvB R191A. Nature of the assay: Growth of quadruple mutant expressing FpvB R191A. Particulars: 10:90 + 2% arabinose. As to the method:
(§1) Site-directed mutagenesis was used to confirm the docking predictions and to define the molecular determinants for ligand uptake through FpvB (Fig. 4C). We generated 17 single amino acid substitutions in FpvB and expressed each of them in trans in the quadruple ΔfpvA ΔfpvB ΔfiuA ΔfoxA mutant. Their ability to complement growth of the mutant in the presence of ferrichrome and ferrioxamine B and to restore TS susceptibility was assessed. […] The mutant transporters were tagged with a C-terminal FLAG tag to evaluate expression levels. FLAG-tagged FpvB mutants had WT levels of expression except for Y216T and W347V, which were expressed at 140% and 25% of WT, respectively.
(§2) The ΔfpvA ΔfpvB ΔfiuA ΔfoxA mutant was complemented with WT fpvA, fpvB, fiuA, and foxA in trans as controls (Fig. 4E).
(§3) MIC assays were conducted as previously described ([13], [14]). Overnight cultures were grown in LB from a glycerol stock at 37°C with shaking (200 rpm). Subcultures in 10:90 (1:100 dilution) were cultured for 4 h. Cells were adjusted to an optical density at 600 nm (OD600) of 0.1/500 in 10:90. All compounds were serially diluted 2-fold in dimethyl sulfoxide (DMSO) or H2O at 75× the final concentration. […] The next day, the OD600 was determined with a plate reader (Thermo Scientific) and normalized to percent of growth of the vehicle control after subtracting the OD600 from blank media.

Assay [3] deals with PA14 ΔfpvA ΔfpvB ΔfiuA ΔfoxA pHERD20T-fpvB Y216T. Kind of assay: Growth of quadruple mutant expressing FpvB Y216T. As to conditions: 10:90 + 2% arabinose. On the procedure:
as §1, §2, §3

For the next assay, the system named is PA14. Kind of assay: Growth curves with DSX and siderophores, WT PA14. As to conditions: 20 h. On the procedure: (§4) Supplementary file : FIG S1 (A) FpvB is expressed in WT PA14 and the ΔfpvA mutant grown in 10:90. PilF was used as a loading control for outer membrane proteins. (B) FpvA is expressed from WT PA14 grown in 10:90. […] PilF was used as a loading control for outer membrane proteins. (C) Growth curves of PA14 and mutants with DSX and different siderophores in 10:90. PA14, ΔfpvA, ΔfpvB, ΔfpvA ΔfpvB, and ΔpvdA ΔpchA strain growth. Blue indicates control, purple indicates treatment with 64 μg/mL DSX, yellow indicates treatment with 10 μg/mL pyoverdine (PA14), and red indicates treatment with 64 μg/mL DSX and 10 μg/mL pyoverdine (PA14). (D) ΔfpvA, ΔfpvA ΔfpvB, and ΔpvdA ΔpchA strain growth. Blue indicates control, purple indicates treatment with 64 μg/mL DSX, grey indicates treatment with 10 μg/mL ferrichrome, and red indicates treatment with 64 μg/mL DSX and 10 μg/mL ferrichrome. (E) ΔfpvA, ΔfpvA ΔfpvB, and ΔpvdA ΔpchA strain growth. […] Download FIG S1, EPS file, 8.5 MB.
(§5) Another explanation for the susceptibility of the ΔfpvA mutant to DSX is that the mutant produces less pyoverdine compared to WT cells due to loss of the signaling cascade that controls siderophore production in response to its binding to FpvA ([25]). To differentiate whether the fpvA mutant was susceptible to DSX because of reduced pyoverdine production or because FpvB was a poor pyoverdine transporter, we treated the WT, ΔfpvA, ΔfpvB, and ΔfpvA ΔfpvB strains with DSX (64 μg/mL) without and with exogenous pyoverdine (10 μg/mL) for 20 h (Fig. 1; see also Fig. S1C). Growth of the ΔfpvA mutant should be restored if there are functional pyoverdine transporters. […] The growth of the ΔfpvA ΔfpvB mutant was inhibited by DSX and pyoverdine, confirming previously published results ([18]).

Another assay relates to PA14 ΔfpvB mutant. Nature of the assay: Growth curves with DSX and siderophores, ΔfpvB. As to conditions: 20 h. On the procedure: as §4, §5
Where [4] appears, read: 64 μg/mL DSX + 10 μg/mL pyoverdine.
Setting [5] is: DSX 64 μg/mL or pyoverdine 10 μg/mL alone, 10:90.

Structures are written as SMILES. Starred links: 1 amine or outer side, 2 acyl side, 3 side chain; linkers in the order of their positions; H or OH if unused. Positions of bridges follow the written chain, without caps; N, C: chain ends. Non-standard residues stand in square brackets, D forms with d. Residues, ends and D or L forms follow the SMILES beside them. ξ: configuration not given here. X1 = O=C([C@@H]1CCN=C2C(N[*:1])=Cc3cc(O)c(O)cc3N21)[*:2]; ξOrn(N(OH)CHO) = NC(CCCN(O)C=O)C(=O)O; Suc = O=C(CCC(=O)[*:2])[*:1]; ξK = NCCCCC(N)C(=O)O; ξS = NC(CO)C(=O)O

With `CC(=O)N(O)CCCCCNC(=O)CCC(=O)N(O)CCCCCNC(=O)CCC(=O)N(O)CCCCCN` [ferrioxamine B], the “effect of siderophore on TS susceptibility” value in assay [1] is listed as “antagonized TS susceptibility”. The “growth in the presence of compound” value in the assay with PA14 ΔfpvB ΔfoxA mutants is “failed to grow”. The “growth in the presence of siderophore” value in assay [2] and in assay [3] was “prevented growth” throughout.

Consider `NCCCCC(NC(=O)C(CO)NC(=O)[C@@H]1CCN=C2C(NC(=O)CCC(=O)O)=Cc3cc(O)c(O)cc3N21)C(=O)NCC(=O)NC(CCCN(O)C=O)C(=O)NC1CCCCNC(=O)C(CO)NC(=O)C(CCCN(O)C=O)NC1=O` (some centres unmarked) [pyoverdine] (Suc-[X1][ξS][ξK]G[ξOrn(N(OH)CHO)][ξK][ξOrn(N(OH)CHO)][ξS]; lactam 6-C), for which the “growth with siderophore in the presence of DSX” value in the assay with PA14 (setting [4]) and in the assay on PA14 ΔfpvB mutant (setting [4]) was “increased growth” in each case. Moreover, the growth versus control result in the assay with PA14 (setting [5]) and in the assay on PA14 ΔfpvB mutant (setting [5]) was “increased growth” each time.

Values taken from article PMC9973354 (mBio, 2022).
